# Laboratory results published in US12312337B2, “Compounds and methods for treating cancer” (ANTIDOTE IP HOLDINGS, LLC, priority 2019, dated 2025).
# System: AhR
# Assay: not given
# Conditions: binding to the AhR; acts as an agonist; read-out: apparent Kd; cited from earlier work
row,SMILES,Kd [nM]
1,Nc1ccccc1C(=O)CC(N)C(=O)O (stereo not shown) [Kynurenine],~4000

# Biological target: T1, human AhR (Homo sapiens, UniProt P35869)
# T1 construct: INDIGO's Aryl Hydrocarbon Receptor (AhR) Reporter Cells include the luciferase reporter gene functionally linked to an AhR-responsive promoter
# T1 sequence (P35869 11-848): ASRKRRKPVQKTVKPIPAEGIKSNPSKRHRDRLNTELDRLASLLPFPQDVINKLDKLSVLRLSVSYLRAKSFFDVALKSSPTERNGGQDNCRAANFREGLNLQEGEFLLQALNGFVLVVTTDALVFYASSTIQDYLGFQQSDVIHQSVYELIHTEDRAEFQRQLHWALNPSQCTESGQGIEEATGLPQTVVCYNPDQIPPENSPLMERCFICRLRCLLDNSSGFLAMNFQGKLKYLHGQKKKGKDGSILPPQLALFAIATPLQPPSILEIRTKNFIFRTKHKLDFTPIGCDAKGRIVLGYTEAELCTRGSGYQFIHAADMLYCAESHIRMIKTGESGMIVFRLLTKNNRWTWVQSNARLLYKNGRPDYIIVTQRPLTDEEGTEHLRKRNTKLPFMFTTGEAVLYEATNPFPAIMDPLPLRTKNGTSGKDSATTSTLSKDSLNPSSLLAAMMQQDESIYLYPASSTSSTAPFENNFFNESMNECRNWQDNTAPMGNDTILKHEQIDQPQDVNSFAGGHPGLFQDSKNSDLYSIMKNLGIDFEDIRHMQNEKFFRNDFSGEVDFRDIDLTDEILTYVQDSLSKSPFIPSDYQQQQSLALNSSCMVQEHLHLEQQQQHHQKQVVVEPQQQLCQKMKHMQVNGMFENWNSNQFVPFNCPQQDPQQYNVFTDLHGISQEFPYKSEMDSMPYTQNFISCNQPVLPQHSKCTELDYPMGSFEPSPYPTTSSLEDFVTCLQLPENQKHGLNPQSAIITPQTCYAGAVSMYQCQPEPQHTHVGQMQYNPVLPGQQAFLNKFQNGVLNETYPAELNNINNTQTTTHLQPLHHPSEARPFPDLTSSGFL
# Assay: INDIGO AhR Reporter Assay (luciferase reporter cells, antagonist mode)
# Type: cell-based
# Conditions: antagonist mode with 50 nM of VAF347 (AhR agonist); 22-24 hours incubation; luciferase RLU
# Source text: INDIGO's Aryl Hydrocarbon Receptor (AhR) Reporter Cells include the luciferase reporter gene functionally linked to an AhR-responsive promoter. Thus, quantifying changes in luciferase expression in the treated reporter cells provides a sensitive surrogate measure of the changes in AhR activity. The principle application of this reporter assay is in the screening of test samples to quantify any functional activity, either agonist or antagonist, that they may exert against human AhR. Reporter Cells incorporate the cDNA encoding beetle luciferase, a 62 kD protein originating from the North American firefly (Photinus pyralis). Luciferase catalyzes the mono-oxidation of D-luciferin in a Mg^2+-dependent reaction that consumes 02 and ATP as co-substrates, and yields as products oxyluciferin, AMP, PPi, CO2, and photon emission. Luminescence intensity of the reaction is quantified using a luminometer, and is reported in terms of Relative Light Units (RLU's). In brief, 200 μl of Reporter Cells was dispensed into wells of the assay plate and pre-incubated for 4-6 hours. Following the pre-incubation period, culture media were discarded and 200 µl/well of the prepared 1×-concentration treatment media were added. Following 22-24 hours of incubation, treatment media were discarded and Luciferase Detection Reagent was added. The intensity of light emission (in units of “Relative Light Units” (RLU)) from each assay well was quantified using a plate-reading luminometer. The assay was run as a competitive binding assay in the antagonist mode with 50 nM of VAF347, a known AhR agonist.
# In Table 4, IC50 values are reported as A, B, C, or D. A represents an IC50 value of less than 100 nM. B represents an IC50 value of equal or greater than 100 nM and less than 500 nM. C represents an IC50 value of equal or greater than 500 nM and less than 1 μM. D represents an IC50 value of equal or greater than 1 μM.
row,SMILES,IC50 [nM]
1,"Cn1nc(C(F)(F)F)cc1NC(=O)c1ccc2cc(-c3ccccn3)cnc2c1 [Compound 100, N-(1-methyl-3-(trifluoromethyl)-1H-pyrazol-5-yl)-3-(pyridine-2-yl)quinoline-7-carboxamide]",< 100
2,"Cn1nc(C(F)(F)F)cc1NC(=O)c1ccc2cc(-c3ccccc3C(F)(F)F)cnc2c1 [Compound 53, N-[1-methyl-3-(trifluoromethyl)-1H-pyrazol-5-yl]-3-[2-(trifluoromethyl)phenyl]quinoline-7-carboxamide]",500 to 1000
3,"O=C(Nc1ccc(C(F)(F)F)nc1)c1ccc2cc(-c3nccs3)cnc2c1 [Compound 83, 3-(thiazol-2-yl)-N-(6-(trifluoromethyl)pyridin-3-yl)quinoline-7-carboxamide]",500 to 1000
4,"Cn1nc(C(F)(F)F)cc1NC(=O)c1ccc2cc(-c3ccccc3Cl)cnc2c1 [Compound 66, 3-(2-Chlorophenyl)-N-[1-methyl-3-(trifluoromethyl)-1H-pyrazol-5-yl]quinoline-7-carboxamide]",100 to 500
5,"Cn1nc(C(F)(F)F)cc1NC(=O)c1ccc2cc(-c3nccs3)cnc2c1 [Compound 93, N-(1-methyl-3-(trifluoromethyl)-1H-pyrazol-5-yl)-3-(thiazol-2-yl)quinoline-7-carboxamide]",< 100
6,"Cc1ccc(Cl)cc1-c1cc(NC(=O)c2cc3ncccc3cc2Cl)n(C)n1 [Compound 51, 6-Chloro-N-[3-(5-chloro-2-methylphenyl)-1-methyl-1H-pyrazol-5-yl]quinoline-7-carboxamide]",< 100
7,"Cc1ccccc1-c1cnc2cc(C(=O)Nc3cc(C(F)(F)F)nn3C)ccc2c1 [Compound 52, N-[1-methyl-3-(trifluoromethyl)-1H-pyrazol-5-yl]-3-(2-methylphenyl) quinoline-7-carboxamide]",100 to 500
8,"Cn1nccc1NC(=O)c1ccc2c(Oc3ccccc3)ccnc2c1 [Compound 76, N-(1-Methyl-1H-pyrazol-5-yl)-4-phenoxyquinoline-7-carboxamide]",> 1000
9,"Cn1nc(C(F)(F)F)cc1NC(=O)c1ccc2cc(-c3cccnc3)cnc2c1 [Compound 77, N-[1-methyl-3-(trifluoromethyl)-1H-pyrazol-5-yl]-3-(pyridin-3-yl)quinoline-7-carboxamide]",> 1000
10,"Cc1ccccc1-c1cc(NC(=O)c2ccc3cc(-c4ccc(F)cc4F)cnc3c2)n(C)n1 [Compound 96, 3-(2,4-difluorophenyl)-N-(1-methyl-3-(o-tolyl)-1H-pyrazol-5-yl)quinoline-7-carboxamide]",< 100
11,"Cn1nc(C(F)(F)F)cc1NC(=O)c1ccc2cc(-c3ccncc3F)cnc2c1 [Compound 98, 3-(3-fluoropyridin-4-yl)-N-[1-methyl-3-(trifluoromethyl)-1H-pyrazol-5-yl]quinoline-7-carboxamide]",100 to 500
12,"CCN(CC)S(=O)(=O)c1cc(NC(=O)c2cc3cc(-c4ccncc4F)cnc3s2)ccc1Cl [Compound 145, N-[4-chloro-3-(N,N-diethylsulfamoyl)phenyl]-5-(3-fluoropyridin-4-yl)-thieno[2,3-b]pyridine-2-carboxamide]",100 to 500
13,"CN(C)S(=O)(=O)c1cc(NC(=O)c2cc3cc(-c4ccncc4F)cnc3s2)ccc1Cl [Compound 153, N-[4-chloro-3-(N,N-dimethylsulfamoyl)phenyl]-5-(3-fluoropyridin-4-yl)-thieno[2,3-b]pyridine-2-carboxamide]",500 to 1000
14,"CCN(CC)S(=O)(=O)c1cc(NC(=O)c2cc3cc(-c4ccc(F)cn4)cnc3s2)ccc1Cl [Compound 151, N-[4-chloro-3-(N,N-diethylsulfamoyl)phenyl]-5-(5-fluoropyridin-2-yl)-thieno[2,3-b]pyridine-2-carboxamide]",> 1000
15,"Cc1ccccc1-c1cc(NC(=O)c2ccc3cc(-c4cccs4)cnc3c2)n(C)n1 [Compound 97, N-(1-methyl-3-(o-tolyl)-1H-pyrazol-5-yl)-3-(thiophen-2-yl)quinoline-7-carboxamide]",< 100
16,"Cn1nc(C(F)(F)F)cc1NC(=O)c1ccc2cc(-c3ccc(F)cn3)cnc2c1 [Compound 101, 3-(5-fluoropyridin-2-yl)-N-(1-methyl-3-(trifluoromethyl)-1H-pyrazol-5-yl)quinoline-7-carboxamide]",< 100
17,CN1CCN(S(=O)(=O)c2cc(NC(=O)c3ccc4c(c3)NC(=O)CO4)ccc2Cl)CC1 [Compound 172],500 to 1000
18,"CC(C)Oc1ccnc2cc(C(=O)Nc3cc(C(F)(F)F)nn3C)ccc12 [Compound 99, 4-Isopropoxy-N-[1-methyl-3-(trifluoromethyl)-1H-pyrazol-5-yl]quinoline-7-carboxamide]",> 1000
19,"Cn1nc(C(F)(F)F)cc1NC(=O)c1cc2ncccc2cc1Cl [Compound 27, 6-Chloro-N-[1-methyl-3-(trifluoromethyl)-1H-pyrazol-5-yl]quinoline-7-carboxamide]",< 100
20,"Cn1nc(C(F)(F)F)cc1NC(=O)c1ccc2cc(-c3ncc(F)cn3)cnc2c1 [Compound 123, 3-(5-fluoropyrimidin-2-yl)-N-[1-methyl-3-(trifluoromethyl)-1H-pyrazol-5-yl]quinoline-7-carboxamide]",< 100
21,"CCN1CCN(c2ccc(NC(=O)c3ccc4cc(-c5ccccc5)cnc4c3)cc2F)CC1 [Compound 64, N-[4-(4-ethylpiperazin-1-yl)-3-fluorophenyl]-3-phenylquinoline-7-carboxamide]",> 1000
22,"Cn1nc(C(C)(C)C)cc1NC(=O)c1cc2ncccc2cc1Cl [Compound 19, N-(3-tert-Butyl-1-methyl-1H-pyrazol-5-yl)-6-chloroquinoline-7-carboxamide]",100 to 500
23,"Cc1ccc(-c2cnc3cc(C(=O)Nc4cc(C(F)(F)F)nn4C)ccc3c2)cc1 [Compound 62, N-[1-Methyl-3-(trifluoromethyl)-1H-pyrazol-5-yl]-3-(4-methylphenyl) quinoline-7-carboxamide]",100 to 500
24,"Cc1ccccc1/N=N/c1ccc(NC(=O)c2ccnn2C)c(C)c1 [CH223191, reference compound]",100 to 500
25,"Cn1nc(C(F)(F)F)cc1NC(=O)c1ccc2cc(-c3ccncc3)cnc2c1 [Compound 78, N-[1-methyl-3-(trifluoromethyl)-1-pyrazol-yl]-3-(pyridin-4-yl)quinoline-7-carboxamide]",100 to 500
26,"Cn1nc(C(C)(C)C)cc1NC(=O)c1ccc2cc(-c3ccc(F)cc3)cnc2c1 [Compound 74, 3-(4-Fluorophenyl)-N-[1-methyl-3-(tert-butyl)-1H-pyrazol-5-yl]quinoline-7-carboxamide]",100 to 500
27,"Cn1nc(C(F)(F)F)cc1NC(=O)c1ccc2cc(-c3ccc(F)cc3)cnc2c1 [Compound 61, 3-(4-Fluorophenyl)-N-[1-methyl-3-(trifluoromethyl)-1H-pyrazol-5-yl]quinoline-7-carboxamide]",< 100
